The record followed here is the NIST ThermoML archive (doi:10.1021/je900470r).

The structures appear in SMILES notation. ± gives the expanded uncertainty stated by the source.

The conditions of series [1]: Liquid; for mass density: 298.15 K, 101.33 kPa.
Series [2] can be described thus: refractive index (Na D-line) (dimensionless). The note with it: 298.15 K; 101.33 kPa; Liquid; Standard Abbe refractometry.

`CCC(C)=O` [butanone]: the mass density (in general, mass per unit of volume) in series [1] was 799.62 ± 0.23 kg/m3. For the same compound, the vapor or sublimation pressure – broadly, the pressure of vapour in equilibrium with the condensed phase – in series [1] (352.68 K) is 101.3 ± 0.2 kPa. In series [2], the refractive index – broadly, the speed of light in vacuum divided by its phase velocity in the sample – amounted to 1.3761 ± 0.0005.

Turning to `CCO` [ethanol], the mass density in series [1] was 786.47 ± 0.5 kg/m3. For the same compound, in series [1] (351.46 K), the “vapor or sublimation pressure” value worked out at 101.3 ± 0.2 kPa. Further, the refractive index in series [2] turned out to be 1.3594 ± 0.0005.

Turning to `CC(C)O` [propan-2-ol], in series [1], the mass density worked out at 780.75 ± 0.24 kg/m3. For the same compound, the refractive index in series [2] stood at 1.3754 ± 0.0005.

`CCCCOC(=O)CC` [butyl propanoate]: the mass density in series [1] was 870.88 ± 0.48 kg/m3. Further, the “vapor or sublimation pressure” value in series [1] (418.69 K) is reported as 101.3 ± 0.3 kPa. The refractive index in series [2] was determined as 1.3992 ± 0.0005.
